- melting point: 192 to 195 °C
Structure (SMILES): O=C(Nc1ccc2c(c1)OCCO2)c1ccc(-c2cccs2)cc1 [Example 15, N-(2,3-Dihydro-benzo[1,4]dioxin-6-yl)-4-thiophen-2-yl-benzamide]

— patent US20050165028A1, “Vanilloid receptor ligands and their use in treatments” (priority 2004, published 2005)
